We go through ten compounds from PubChem BioAssay (NCI).

Some test systems named below: RXF 393 renal; 786-0 renal; HCT-15 colon; CAKI-1 renal; EKVX NSCLC; SF-539 CNS; KM12 colon; SF-268 CNS; IGROV1 ovarian; NCI-H460 lung.
What all share (assay): NCI tumour cell line growth inhibition, 48 h

Several values for one entry are separate records, joined by “and”; a condition that tells them apart may be missing. Equal values may be shown once.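 Following 48 hours of exposure in 96-well plates, responses at five concentrations were used to interpolate endpoints linearly. GI50 marks 50% less growth. TGI: total growth inhibition.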 Some results are limits rather than exact numbers.

For `O=C(O)C1C(C(=O)Nc2ccc3c(c2)Cc2ccccc2-3)C2(Cl)C(Cl)=C(Cl)C1(Cl)C2(Cl)Cl` (centres undefined), the TGI in the assay on RXF 393 renal was 43.1 µM; in the assay with 786-0 renal, greater than 100 µM; in the assay on HCT-15 colon, 48.5 µM; with CAKI-1 renal it was greater than 100 µM; with EKVX NSCLC it was 97.6 µM; in the assay with SF-539 CNS it was 28.9 µM. In addition, the TGI in the assay on KM12 colon was 39 µM; in the assay on SF-268 CNS, 64.5 µM; with IGROV1 ovarian, 44.4 µM.
Regarding `CC1=CC(=O)CCC2(C)C1CC[C@@H]2OC=O` (some centres undefined), the TGI in the assay with RXF 393 renal, in the assay on 786-0 renal, in the assay on NCI-H460 lung, in the assay on CAKI-1 renal, in the assay with EKVX NSCLC and with SF-539 CNS was greater than 100 µM in each case. Further, the TGI in the assay with KM12 colon, in the assay with SF-268 CNS and in the assay with IGROV1 ovarian was greater than 100 µM throughout.
In the case of `CC1/C=C/C=C/C=C/C=C/C=C/C=C/C=C/C(O[C@@H]2O[C@H](C)[C@H](O)[C@@H](O)[C@@H]2N)CC(O)C(C(=O)O)C(O)CC(=O)CC(O)CC(O)CC(O)CC(=O)CCCC(=O)CC(=O)OC1C(C)CC(C)C(O)CC(=O)c1ccc(N)cc1` (some centres undefined), the GI50 was 0.0469 µM and 0.156 µM in the assay with RXF 393 renal; 0.0591 µM and 0.172 µM in the assay with 786-0 renal; 0.0611 µM and 0.229 µM in the assay on NCI-H460 lung; 0.0583 µM and 0.186 µM in the assay with CAKI-1 renal; 0.0644 µM and 0.221 µM in the assay on EKVX NSCLC; 0.0604 µM and 0.481 µM with SF-539 CNS. For the same compound, the GI50 with KM12 colon is 0.0694 µM and 0.574 µM; in the assay on SF-268 CNS, 0.0565 µM and 0.202 µM; in the assay with IGROV1 ovarian, 0.0598 µM and 0.226 µM. The TGI in the assay with RXF 393 renal was 0.0894 µM and 0.304 µM; in the assay with 786-0 renal, 0.111 µM and 0.346 µM; in the assay on NCI-H460 lung, 0.11 µM and 0.633 µM; in the assay on CAKI-1 renal it was 0.107 µM and 0.357 µM; with EKVX NSCLC, 0.126 µM and 0.484 µM; in the assay with SF-268 CNS it was 0.102 µM and 0.409 µM. In addition, the TGI in the assay with IGROV1 ovarian is 0.116 µM and 0.536 µM.
Consider `CCNCC(=O)O[C@]1(CC)C(=O)OCc2c1cc1n(c2=O)Cc2cc3ccccc3nc2-1`, for which the TGI was 1.74 µM in the assay on RXF 393 renal; 1.05 µM with 786-0 renal; greater than 100 µM in the assay on HCT-15 colon; 4.65 µM in the assay on CAKI-1 renal; greater than 100 µM in the assay on EKVX NSCLC; 0.574 µM in the assay with SF-539 CNS. Also, the TGI in the assay with KM12 colon was 13.4 µM; in the assay with SF-268 CNS it was greater than 100 µM; in the assay with IGROV1 ovarian, 24.5 µM.
`COc1ccc(-c2ccc(/C=N/n3c(COc4ccccc4Cl)nn(CN4CCN(C)CC4)c3=S)o2)c([N+](=O)[O-])c1`: the GI50 with RXF 393 renal is 10.4 µM; in the assay with 786-0 renal, 17.4 µM; in the assay with HCT-15 colon, 17.4 µM; in the assay on NCI-H460 lung, 14.7 µM; in the assay on CAKI-1 renal it was 5.19 µM; in the assay with EKVX NSCLC, 21.5 µM. Moreover, the GI50 with SF-539 CNS was 19.7 µM; in the assay with KM12 colon, 11.9 µM; with SF-268 CNS it was 17.5 µM. Further, the TGI in the assay with RXF 393 renal is 25 µM; in the assay with 786-0 renal it was 39.3 µM; with HCT-15 colon it was 38.3 µM; with NCI-H460 lung it was 37.6 µM; with CAKI-1 renal, 14.6 µM; with EKVX NSCLC, 70.5 µM. Further, the figures for the TGI with SF-539 CNS, in the assay on KM12 colon and with SF-268 CNS were 39.2 µM, 31.7 µM and 45.1 µM, respectively.
For the compound `COC(=O)c1ccc2c(c1)nc(-c1cc3ccccc3[nH]c1=O)n2-c1cc(C(C)(C)C)[nH]n1`, the GI50 in the assay on RXF 393 renal was 2.83 µM; in the assay on 786-0 renal it was 3.79 µM; in the assay on NCI-H460 lung, 0.784 µM; in the assay with CAKI-1 renal, 1.24 µM; in the assay with EKVX NSCLC, 10 µM; with SF-539 CNS, greater than 20.3 µM. The GI50 in the assay with SF-268 CNS is 2.24 µM; in the assay with IGROV1 ovarian, 1.23 µM. Moreover, the TGI in the assay on RXF 393 renal was greater than 29.8 µM; with 786-0 renal, greater than 100 µM; with NCI-H460 lung, greater than 100 µM; in the assay with CAKI-1 renal, greater than 95.1 µM; in the assay on EKVX NSCLC, greater than 100 µM; in the assay on SF-539 CNS, greater than 100 µM. Besides, the TGI was greater than 95.9 µM in the assay with SF-268 CNS and greater than 100 µM with IGROV1 ovarian.
Regarding `Cn1c2c(c3ccccc31)C1CCCCC1C1C(=O)NC(=O)C21` (centres undefined), the TGI in the assay on RXF 393 renal, with 786-0 renal, in the assay with HCT-15 colon, with NCI-H460 lung, in the assay with EKVX NSCLC and with SF-539 CNS was greater than 100 µM each time. The TGI with KM12 colon, in the assay with SF-268 CNS and in the assay with IGROV1 ovarian was greater than 100 µM throughout.
Take `NC(=NCCCOc1ccc(Cl)cc1)Nc1ccc(Cl)cc1`: the GI50 is 1.86 µM in the assay on RXF 393 renal; 2.15 µM in the assay on 786-0 renal; 2.98 µM with HCT-15 colon; 2.7 µM in the assay on NCI-H460 lung; 2.77 µM in the assay on CAKI-1 renal; 3.87 µM with EKVX NSCLC. The GI50 in the assay on SF-539 CNS was 1.83 µM; in the assay with SF-268 CNS, 3.1 µM; in the assay with IGROV1 ovarian, 2.02 µM. Further, the TGI was 6.97 µM in the assay with RXF 393 renal; 6.67 µM in the assay with 786-0 renal; 9.29 µM in the assay with HCT-15 colon; 7.94 µM in the assay with NCI-H460 lung; 9.11 µM in the assay on CAKI-1 renal; 13.3 µM in the assay on EKVX NSCLC. The TGI was 3.72 µM in the assay on SF-539 CNS, 13 µM in the assay on SF-268 CNS and 5.83 µM with IGROV1 ovarian.
Take `CN(C)c1ccc(C(=C2C=CC(=[N+](C)C)C=C2)c2ccc(N(C)C)cc2)cc1` (tested in a mixture with another compound): the GI50 in the assay on RXF 393 renal is 0.108 µM; in the assay with 786-0 renal, 0.104 µM; with HCT-15 colon it was 0.294 µM; with CAKI-1 renal, 0.276 µM; in the assay with EKVX NSCLC, 0.0725 µM; with SF-539 CNS it was 0.0643 µM. The GI50 was 0.0379 µM with KM12 colon and 0.161 µM in the assay with IGROV1 ovarian. The TGI is 0.871 µM in the assay with RXF 393 renal; 1.02 µM in the assay with 786-0 renal; 1.41 µM in the assay on HCT-15 colon; 1.38 µM in the assay with CAKI-1 renal; 6.45 µM in the assay with EKVX NSCLC; 0.748 µM with SF-539 CNS. In addition, the TGI with KM12 colon worked out at 0.172 µM; in the assay on SF-268 CNS, 1.29 µM; in the assay on IGROV1 ovarian, 1.78 µM.
Regarding `CC[C@H]1CN2CCc3cc(OC)c(OC)cc3[C@@H]2C[C@@H]1C[C@H]1NCCc2cc(O)c(OC)cc21`, the TGI in the assay on RXF 393 renal was 0.0518 µM and 0.0717 µM; with 786-0 renal, 0.0381 µM; with HCT-15 colon, 0.373 µM and 0.557 µM; in the assay with NCI-H460 lung it was 0.0586 µM and 0.0651 µM and 0.186 µM; with CAKI-1 renal it was 0.0847 µM and 0.375 µM; with EKVX NSCLC, 0.0779 µM and 0.0344 µM and 0.0322 µM. Moreover, the TGI in the assay with SF-539 CNS is 0.0648 µM and < 0.0237 µM and 0.0511 µM. Further, the GI50 with 786-0 renal is 0.00714 µM.
